Test results published in article PMC5623949, “Exploiting the 2-Amino-1,3,4-thiadiazole Scaffold To Inhibit Trypanosoma brucei Pteridine Reductase in Support of Early-Stage Drug Discovery” (ACS Omega, 2017).
Entries after “also recorded” stand apart in the source; their conditions may differ.

Legend:
[1] = in vitro; design: cytotoxicity, per cent cell growth of WI-38 fibroblasts; conditions: human, wi-38 cells; read-out: % cell growth W1-38 at 10uM
[2] = tested on: T. b. brucei Lister 427 bloodstream forms; experiment: In vitro activity against T. brucei (HTS SYBR Green I growth inhibition assay); assay type: cell-based, Trypanosoma brucei brucei; conditions: 50 μM, standard deviation within ±10% of the value; for inhibition at 50 µM: Trypanosoma brucei, read-out: % Inhibition T. brucei at 50 μM
[3] = target: T1, TbDHFR (Trypanosoma brucei brucei, UniProt Q27783); experiment: TbDHFR enzyme inhibition (spectrophotometric); assay type: biochemical; conditions: 100 μM; Table S3
T1 construct: made in house

[4] = target: T2, hERG (Homo sapiens, UniProt Q12809); design: hERG inhibition liability assay
T2 construct: gene KCNH2

[5] = tested on: T. b. brucei Lister 427 bloodstream forms; experiment: T. brucei resazurin assay for MTX potentiation and folic acid supplementation; assay type: cell-based, Trypanosoma brucei brucei; conditions: for antiparasitic effect as single agent: compound alone, 4m at 50 μM
Protocol: T. b. brucei Lister 427 bloodstream forms were grown at 37 °C and 5% CO2 in a complete HMI-9 medium, supplemented with 10% FCS and 100 UI/mL of penicillin/streptomycin. The cultures were diluted until a cell density of 2 × 10^6/mL was reached. The efficacy of compounds against T. brucei bloodstream forms was evaluated using a modified resazurin-based assay previously described.[46] The compounds were prepared from a stock solution in 10 mM DMSO and diluted in HMI-9 (supplemented or not with 1 mM folic acid, Sigma-Aldrich) to 40 μM work solution (0.4% DMSO, with the DMSO limit in the assay being 0.4%). […] The 40 μM work solution was then used to perform serial dilutions (1:2) in a 96-well plate. Upon compound addition to the test plate, the mid-log bloodstream forms were added (100 μL) in complete HMI-9 medium (supplemented or not with 1 mM folic acid) at a final cell density of 1 × 10^4/mL in a final well volume of 200 μL with a maximum DMSO concentration of 0.2%. Following incubation for 72 h at 37 °C and 5% CO2, 20 μL of 0.5 mM resazurin solution was added, and the plates were incubated further for 4 h under the same conditions. Fluorescence was measured at 540 and 620 nm excitation and emission wavelengths, respectively, using a Synergy 2 multi-mode reader (BioTek). […] This approach requires the use of both compounds at their EC50 potency in the combination, which is impossible to be detected for compound 4m having no intrinsic antiparasitic activity as a single agent at the tested concentrations. Folic acid (1 mM) was chosen on the basis of the following experiments. The stock solution of 10 mM folic acid dissolved in NaOH solution was used to perform a dose–response curve with folic acid alone to evaluate the maximum amount we could use without compromising parasite growth due to pH modification of the media. […] The IC50 values reported are the averages of the results obtained in at least two independent experiments. Pentamidine was used as the reference drug and internal control in all assays.

[6] = tested on: 786-O; experiment: cells; design: mitochondrial toxicity in 786-O cells; conditions: Homo sapiens, 786-0
Protocol: Independent of the effect of any antiparasitic potential of compounds, they were evaluated using a panel of early-toxicity assays comprising cytotoxicity (A549, human lung adenocarcinoma epithelial cell line and WI-38, human lung fibroblasts), mitochondrial toxicity (786-O, human renal carcinoma cell line), hERG inhibition,[31] cytochrome P450 inhibition (CYP1A2, CYP2C9, CYP2C19, CYP2D6, and CYP3A4),[31] and Aurora B kinase inhibition. […] For the two compounds active against TbPTR1 (4m and 4o), IC50 against hERG, cytochrome P450, and mitochondrial toxicity were determined (reported in Supporting Information). We observed that the dose of compounds 4m, 4o, 4c, and 3k was 4 μM in the potentiation assays. […] In the case of hERG, CYP2D6, CYP2A9, CYP2C19, and mitochondrial toxicity, there is a selectivity index of around 3–4 fold, thus showing an acceptable profile.

[7] = target: T3, TbPTR1 (Trypanosoma brucei brucei, UniProt O76290); experiment: biochemical; conditions: for inhibition at 50 µM: 50 μM compound, read-out: % Inhibition TbPTR1 at 50 μM; for IC50: dose-response 0.001-100 μM
T3 construct: made in house
T3 sequence (O76290 1-268): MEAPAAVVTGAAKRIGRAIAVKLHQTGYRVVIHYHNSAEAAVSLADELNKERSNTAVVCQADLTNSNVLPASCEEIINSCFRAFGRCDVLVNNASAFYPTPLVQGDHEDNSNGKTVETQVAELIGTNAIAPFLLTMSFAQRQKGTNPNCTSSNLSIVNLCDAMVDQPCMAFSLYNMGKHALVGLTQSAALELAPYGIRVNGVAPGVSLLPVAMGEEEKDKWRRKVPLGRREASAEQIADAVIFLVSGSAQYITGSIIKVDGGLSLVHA

T1 sequence (Q27783 whole entry): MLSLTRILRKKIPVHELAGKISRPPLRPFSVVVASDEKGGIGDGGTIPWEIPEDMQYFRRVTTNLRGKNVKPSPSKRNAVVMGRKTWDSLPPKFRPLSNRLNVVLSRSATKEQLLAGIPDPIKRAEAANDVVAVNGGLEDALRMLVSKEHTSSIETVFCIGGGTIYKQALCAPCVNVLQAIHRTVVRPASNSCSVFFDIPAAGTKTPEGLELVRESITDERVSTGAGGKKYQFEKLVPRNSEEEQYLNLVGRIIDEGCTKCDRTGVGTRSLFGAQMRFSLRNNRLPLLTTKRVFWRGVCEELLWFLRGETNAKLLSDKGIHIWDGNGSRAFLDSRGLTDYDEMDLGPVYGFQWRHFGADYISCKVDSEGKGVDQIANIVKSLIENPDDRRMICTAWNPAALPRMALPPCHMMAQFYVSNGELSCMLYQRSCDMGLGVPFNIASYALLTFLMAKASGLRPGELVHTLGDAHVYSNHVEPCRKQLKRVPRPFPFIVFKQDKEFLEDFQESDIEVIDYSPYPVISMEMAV
T2 sequence (Q12809 whole entry): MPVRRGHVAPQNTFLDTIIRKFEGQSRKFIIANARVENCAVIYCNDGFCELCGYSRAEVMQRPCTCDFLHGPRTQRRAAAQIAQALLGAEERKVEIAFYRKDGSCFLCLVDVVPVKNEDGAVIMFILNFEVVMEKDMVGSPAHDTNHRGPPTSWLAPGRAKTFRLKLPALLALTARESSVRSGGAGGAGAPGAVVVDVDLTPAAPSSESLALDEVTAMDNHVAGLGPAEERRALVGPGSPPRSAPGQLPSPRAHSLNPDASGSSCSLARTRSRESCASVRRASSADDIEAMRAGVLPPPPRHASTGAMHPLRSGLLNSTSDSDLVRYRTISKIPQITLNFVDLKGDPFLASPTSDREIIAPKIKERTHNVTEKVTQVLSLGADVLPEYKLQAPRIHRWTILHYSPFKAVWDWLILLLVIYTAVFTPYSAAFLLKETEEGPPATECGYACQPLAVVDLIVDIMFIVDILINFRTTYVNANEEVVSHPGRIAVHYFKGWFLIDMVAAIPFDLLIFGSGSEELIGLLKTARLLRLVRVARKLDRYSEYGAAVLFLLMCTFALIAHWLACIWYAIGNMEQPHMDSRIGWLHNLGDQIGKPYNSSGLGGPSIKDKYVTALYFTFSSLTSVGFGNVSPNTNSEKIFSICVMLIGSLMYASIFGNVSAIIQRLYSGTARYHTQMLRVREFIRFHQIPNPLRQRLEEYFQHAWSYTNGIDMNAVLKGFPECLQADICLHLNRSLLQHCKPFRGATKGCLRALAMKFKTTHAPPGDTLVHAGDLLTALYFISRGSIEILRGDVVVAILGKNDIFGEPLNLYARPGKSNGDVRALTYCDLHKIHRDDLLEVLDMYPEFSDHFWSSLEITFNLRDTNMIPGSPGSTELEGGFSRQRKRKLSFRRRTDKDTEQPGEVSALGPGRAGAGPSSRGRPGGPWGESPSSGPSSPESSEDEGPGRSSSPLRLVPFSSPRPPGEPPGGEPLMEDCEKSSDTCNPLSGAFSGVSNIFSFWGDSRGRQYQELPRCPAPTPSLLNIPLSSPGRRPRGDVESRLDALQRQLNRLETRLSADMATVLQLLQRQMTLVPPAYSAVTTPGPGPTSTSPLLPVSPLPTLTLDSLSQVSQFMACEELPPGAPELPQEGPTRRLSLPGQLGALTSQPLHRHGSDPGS

SMILES | viability at 10 µM [1] | inhibition at 50 µM [2] | inhibitory activity against TbDHFR [3] | IC50 [4] | effect of 1 mM folic acid on T. b. brucei growth inhibition ([5]; 1 mM folic acid, MTX alone or equimolar 4m + MTX) | antiparasitic effect as single agent [5] | inhibition at 10 µM [6] | inhibition at 50 µM [7] | IC50 [7] | % Inhibition T. brucei at 50 μM [2]
Nc1nnc(NCc2ccc(-c3ccccc3)cc2)s1 [4m] | 95.9 ± 18.6% | 6.6% | neither 4m nor 4o is able to inhibit | 3.6 µM | reversed; also recorded: rescue cell growth | did not show any significant antiparasitic effect | -2.5 ± 6.1% | 73 ± 1.1% | 16 µM | –
Nc1nnc(NCCc2cccs2)s1 [4o, N2G(2G(thiophenG2Gyl)ethyl)G1,3,4GthiadiazoleG2,5Gdiamine] | 96.7 ± 13.5% | 37.9% | neither 4m nor 4o is able to inhibit | 3.1 µM | – | low T. brucei cell inhibitory activity | 0.5 ± 4.8% | 79.8 ± 0.4% | 25 µM | poor antiparasitic activity
